For one test, the system named is L1210 leukemia. Briefly: L1210 screening (L1210 leukemia tumor model, survival). The format is in vivo, Female CDF, mice. To be noted: for %ILS: 25% ILS or greater indicates activity, maximum 200%. The protocol: (§1) The platinum-diphosphonate complexes were tested for antitumor activity using both Sarcoma 180 ascites and L1210 leukemia tumor models (see Tables 3 and 4).
Female CDF, mice (16-22g) were injected with a suspension of 1x10^6 tumor cells in 0.5 mL of […] on day zero. On day one, the mice received the test compound in 0.5 mL of the chosen medium (usually water). Six mice were used for each test dose and six doses were normally given. Normal controls (six mice) received tumor on day zero and 0.5 mL of test medium on day one. Positive controls (six mice) were given tumor on day zero and 8 mg/kg cisplatin in 0.5 mL of […] on say one. All compound doses were adjusted for the actual average weight of the mice involved. Testing was terminated at 3 time the normal control mean life span. The percent increase in lifespan (%ILS) was calculated as follows: %ILS = [(mean life span (test)/mean life span (control))-1] X 100% A 25% ILS or greater indicates activity in this screen. The maximum possible ILS is 200%. The positive control must have an ILS > 25% for the test to be considered valid.

For another test, the system named is Sarcoma 180 ascites. The test can be described thus: S180a screening (Sarcoma 180 ascites tumor model, survival). To be noted: for %ILS: ILS > 50% indicates activity. The format is in vivo, Female CFW mice. The protocol: as §1
Female CFW mice (18-25g) were implanted with 2 x 10^6 cells ip on day zero. Compounds were administered in 0.5 mL water ip on say one. Groups of 6 mice were used for each test dose as well as controls as defined above. The test was run for twice the MST of the control group, with survivors counted as dying on that day. An ILS of > 50% indicates activity. The tumor line was maintained through weekly transfer of 4 x 10^6 cells in CFW mice.

For test [1], the system named is L1210 murine tumor system. To be noted: Nepras, Masters Thesis 1979; cited from earlier work.
Where [2] appears, read: L1210, dose 10.00 mg/kg day one.
[3] abbreviates: L1210, dose 20.00 mg/kg day one.
[4] abbreviates: L1210, dose 40.00 mg/kg day one.
[5] abbreviates: L1210, dose 80.00 mg/kg day one.
The mark [6] stands for this setting: L1210, dose 160.00 mg/kg day one.
Setting [7] is: L1210, dose 320.00 mg/kg day one.
Setting [8] is: L1210, survivors/mice, dose 10.00 mg/kg.
Setting [9] is: L1210, survivors/mice, dose 20.00 mg/kg.
Setting [10] is: L1210, survivors/mice, dose 40.00 mg/kg.
Where [11] appears, read: L1210, survivors/mice, dose 80.00 mg/kg.
Where [12] appears, read: L1210, survivors/mice, dose 160.00 mg/kg.
The mark [13] stands for this setting: L1210, survivors/mice, dose 320.00 mg/kg.
The mark [14] stands for this setting: survivors/mice, dose 10.00 mg/kg ip.
Where [15] appears, read: survivors/mice, dose 20.00 mg/kg ip.
The mark [16] stands for this setting: survivors/mice, dose 40.00 mg/kg ip.
The mark [17] stands for this setting: survivors/mice, dose 80.00 mg/kg ip.
[18] abbreviates: survivors/mice, dose 320.00 mg/kg ip.
[19] abbreviates: survivors/mice, dose 160.00 mg/kg ip.

Values joined by “and” are separate entries in the source; they are usually repeats but may differ in a detail not shown here. Equal entries are not always repeated.

Take `CC(O)(P(=O)([O-])[O-])P(=O)([O-])[O-].NC1CCCCC1N.NC1CCCCC1N.[Pt+2].[Pt+2]` [Example 4, [Pt2(R,R-dach)2(HEDP)]]: the “%ILS” value in the test on L1210 leukemia (setting [2]) is recorded as 8%; in the test on L1210 leukemia (setting [3]), 3%; in the test with L1210 leukemia (setting [4]), 24%; in the test on L1210 leukemia (setting [5]), 28%; in the test on L1210 leukemia (setting [6]) it was 40%; in the test with L1210 leukemia (setting [7]), 72%. The “%ILS” value in the test with Sarcoma 180 ascites (dose 10.00 mg/kg ip day one) was -7%; with Sarcoma 180 ascites (dose 20.00 mg/kg ip day one, 20 mg/kg), -10% and -4%; in the test on Sarcoma 180 ascites (dose 160.00 mg/kg ip day one, 160 mg/kg), 95% and 77%; in the test with Sarcoma 180 ascites (dose 256.00 mg/kg ip day one) it was 47%; with Sarcoma 180 ascites (dose 320.00 mg/kg ip day one), 75%. For the same molecule, the SURV with L1210 leukemia (setting [8]), in the test with L1210 leukemia (setting [9]), with L1210 leukemia (setting [10]), with L1210 leukemia (setting [11]), in the test on L1210 leukemia (setting [12]) and in the test with L1210 leukemia (setting [13]) was 0/ 6 throughout. Besides, the SURV in the test with Sarcoma 180 ascites (setting [14]) is 0/ 6; with Sarcoma 180 ascites (setting [15]), 0/ 6; with Sarcoma 180 ascites (setting [16]), 0/ 6; with Sarcoma 180 ascites (setting [17]), 0/ 6; in the test on Sarcoma 180 ascites (survivors/mice, dose 160.00 mg/kg ip, 160 mg/kg) it was 5/ 6 and 3/ 6; in the test with Sarcoma 180 ascites (survivors/mice, dose 256.00 mg/kg ip), 1/ 6. Besides, in the test with Sarcoma 180 ascites (setting [18]), the SURV is on record as 4/ 6.
Take “[Pt2(en)2(PDP-D-glucosamine)] [Example 5]”: the “%ILS” value with L1210 leukemia (setting [2]) is -8%; in the test on L1210 leukemia (setting [3]) it was -15%; with L1210 leukemia (setting [4]), 10%; with L1210 leukemia (setting [5]), 4%; with L1210 leukemia (setting [6]), 13%; in the test with L1210 leukemia (setting [7]), 16%. For the same molecule, the “%ILS” value in the test with Sarcoma 180 ascites (dose 10.00 mg/kg ip day one) is 0%; in the test with Sarcoma 180 ascites (dose 20.00 mg/kg ip day one), -3%; in the test on Sarcoma 180 ascites (dose 40.00 mg/kg ip day one), -5%; in the test on Sarcoma 180 ascites (dose 80.00 mg/kg ip day one), 0%; in the test with Sarcoma 180 ascites (dose 160.00 mg/kg ip day one), 0%; in the test with Sarcoma 180 ascites (dose 320.00 mg/kg ip day one), 28%. Besides, the SURV with L1210 leukemia (setting [9]), in the test with L1210 leukemia (setting [10]), in the test on L1210 leukemia (setting [11]), with L1210 leukemia (setting [12]), in the test with L1210 leukemia (setting [13]) and in the test with Sarcoma 180 ascites (setting [14]) was 0/ 6 throughout. The SURV with Sarcoma 180 ascites (setting [15]) is on record as 0/ 6; with Sarcoma 180 ascites (setting [16]), 0/ 6; in the test with Sarcoma 180 ascites (setting [17]), 0/ 6; with Sarcoma 180 ascites (setting [19]), 0/ 6; in the test on Sarcoma 180 ascites (setting [18]), 0/ 5.
Take [Pt2(en)2(PDP-hydrazide)] [Example 7]: the “%ILS” value is listed as -14% with L1210 leukemia (setting [2]); 21% in the test with L1210 leukemia (setting [3]); -18% in the test with L1210 leukemia (setting [4]); -14% in the test on L1210 leukemia (setting [5]); 20% with L1210 leukemia (setting [6]); 0% with L1210 leukemia (setting [7]). Moreover, the SURV in the test with L1210 leukemia (setting [8]), in the test on L1210 leukemia (setting [9]), in the test on L1210 leukemia (setting [10]), in the test with L1210 leukemia (setting [11]), with L1210 leukemia (setting [12]) and in the test on L1210 leukemia (setting [13]) was 0/ 6 throughout.
With Na[Pt2(R,R-dach)2(PDP)] [Example 3], the “%ILS” value with L1210 leukemia (setting [2]) worked out at 1%; in the test with L1210 leukemia (setting [3]) it was 28%; in the test on L1210 leukemia (setting [4]), 28%; with L1210 leukemia (setting [5]) it was 55%; with L1210 leukemia (setting [6]), 104%; in the test with L1210 leukemia (setting [7]), 111%. Further, the SURV is on record as 0/ 6 in the test with L1210 leukemia (setting [8]); 0/ 6 in the test with L1210 leukemia (setting [9]); 0/ 6 with L1210 leukemia (setting [10]); 0/ 6 with L1210 leukemia (setting [11]); 2/ 6 with L1210 leukemia (setting [12]); 2/ 6 with L1210 leukemia (setting [13]).
For Na[Pt2(en)2(PDP)] [Example 2], the “%ILS” value in the test with L1210 leukemia (setting [2]) is recorded as 0%; with L1210 leukemia (setting [3]), -3%; in the test with L1210 leukemia (setting [4]), 0%; with L1210 leukemia (setting [5]), 20%; in the test with L1210 leukemia (setting [6]), 23%; in the test with L1210 leukemia (setting [7]), 11%. For the same molecule, the “%ILS” value with Sarcoma 180 ascites (dose 10.00 mg/kg ip day one) is listed as -4%; with Sarcoma 180 ascites (dose 20.00 mg/kg ip day one) it was 5%; with Sarcoma 180 ascites (dose 40.00 mg/kg ip day one), 6%; in the test on Sarcoma 180 ascites (dose 80.00 mg/kg ip day one) it was 27%; in the test with Sarcoma 180 ascites (dose 160.00 mg/kg ip day one) it was 48%; with Sarcoma 180 ascites (dose 320.00 mg/kg ip day one), 49%. Also, the SURV in the test with L1210 leukemia (setting [8]), in the test on L1210 leukemia (setting [9]), in the test with L1210 leukemia (setting [10]), in the test with L1210 leukemia (setting [11]), in the test on L1210 leukemia (setting [12]) and with L1210 leukemia (setting [13]) was 0/ 6 each time. Also, the SURV in the test with Sarcoma 180 ascites (setting [14]) was 0/ 6; in the test with Sarcoma 180 ascites (setting [15]) it was 0/ 6; in the test with Sarcoma 180 ascites (setting [16]), 0/ 6; in the test on Sarcoma 180 ascites (setting [17]), 1/ 6; in the test with Sarcoma 180 ascites (setting [19]) it was 1/ 6; in the test with Sarcoma 180 ascites (setting [18]), 1/ 6.
For the molecule `NCCN.NCCN.O=P([O-])([O-])CP(=O)([O-])[O-].[Pt+2].[Pt+2]` [[Pt2(en)2(MDP)]], in test [1], the antitumor activity result was “inactive”.
As to `N.N.[Cl][Pt][Cl]` [cisplatin, reference compound], the “POS CONT SURV” value is 3/ 6 and 4/ 6 and 0/ 6 and 1/ 6 in the test on L1210 leukemia (L1210, survivors/mice, positive control of the respective experiment, 8 mg/kg cisplatin, 8 mg/kg); 2/ 5 and 4/ 6 and 3/ 6 and 1/ 6 with Sarcoma 180 ascites (survivors/mice, positive control of the respective experiment, 8 mg/kg cisplatin, 8 mg/kg). Besides, the “POS CONT %ILS” value in the test on Sarcoma 180 ascites (positive control of the respective experiment, 8 mg/kg cisplatin in saline, 8 mg/kg) is 58% and 92% and 82% and 63%.
For the molecule `CC(O)(P(=O)([O-])[O-])P(=O)([O-])[O-].NCCN.NCCN.[Pt+2].[Pt+2]` [[Pt2(en)2(HEDP)]], the antitumor activity entry in test [1] is “inactive”.

The values above are taken from patent publication EP0409527A2, “Cis-diamineplatinum complexes with methanediphosphonate and substituted methanediphosphonate ligands as antitumor agents” (ENGELHARD CORPORATION, priority 1989, dated 1991).
